Experimental data reported in the supplement of paper PMC10307832.

Key:
Experiment in all cases: relative viability (nuclei count vs DMSO), 5 days (fraction); higher = more cells survive
[1] = compound: C1CCC(CC1)N(CCNCCC2=C3C(=C(C=C2)O)NC(=O)CO3)C(=O)CCNCCC4=CC(=C(C=C4)Cl)Cl [AZ505] + Cc1cc(Nc2cc(N3CCN(C)CC3)nc(Sc3ccc(NC(=O)C4CC4)cc3)n2)n[nH]1 [Tozasertib] (partner 0.1 µM)
How it was run: (§1)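 The day after seeding in 1536-well plates, lung cancer cell lines were treated by pin tool with a single drug, or with a fixed anchor-drug dose together with five library-drug doses (not always all listed) in √10 steps. After 5 days, a combined fix-and-stain solution (final 0.05% Triton X-100, 1% formaldehyde, 1 ug/ml Hoechst) was added. Nuclei counted on 4× images gave relative viability as treated counts over vehicle counts, reported as the median of duplicate plates.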

[2] = compound: Cn1c(=O)n(-c2ccc(C(C)(C)C#N)cc2)c2c3cc(-c4cnc5ccccc5c4)ccc3ncc21 [Dactolisib] + CC1(C)CCC(c2ccc(Cl)cc2)=C(CN2CCN(c3ccc(C(=O)NS(=O)(=O)c4ccc(N[C@H](CCN5CCOCC5)CSc5ccccc5)c(S(=O)(=O)C(F)(F)F)c4)cc3)CC2)C1 [Navitoclax] (partner 0.5 µM)
How it was run: as §1

[3] = compound: Cn1c(=O)n(-c2ccc(C(C)(C)C#N)cc2)c2c3cc(-c4cnc5ccccc5c4)ccc3ncc21 [Dactolisib] + C[C@]1(O)C[C@@H](c2nc(-c3ccc4ccc(-c5ccccc5)nc4c3)c3c(N)nccn32)C1 [Linsitinib] (partner 1 µM)
How it was run: as §1

[4] = compound: Cn1c(=O)n(-c2ccc(C(C)(C)C#N)cc2)c2c3cc(-c4cnc5ccccc5c4)ccc3ncc21 [Dactolisib] + CC(=O)c1c(C)c2cnc(Nc3ccc(N4CCNCC4)cn3)nc2n(C2CCCC2)c1=O [Palbociclib] (partner 0.5 µM)
How it was run: as §1

Row | Cell Line | relative viability ([1]; first compound 0.08 µM) | relative viability ([1]; first compound 0.253 µM) | relative viability ([1]; first compound 0.8 µM) | relative viability ([1]; first compound 2.53 µM) | relative viability ([1]; first compound 8 µM) | relative viability ([2]; first compound 0.002 µM) | relative viability ([2]; first compound 0.006325 µM) | relative viability ([2]; first compound 0.02 µM) | relative viability ([2]; first compound 0.06325 µM) | relative viability ([2]; first compound 0.2 µM) | relative viability ([3]; first compound 0.002 µM) | relative viability ([3]; first compound 0.006325 µM) | relative viability ([3]; first compound 0.02 µM) | relative viability ([3]; first compound 0.06325 µM) | relative viability ([3]; first compound 0.2 µM) | relative viability ([4]; first compound 0.002 µM) | relative viability ([4]; first compound 0.006325 µM) | relative viability ([4]; first compound 0.02 µM) | relative viability ([4]; first compound 0.06325 µM) | relative viability ([4]; first compound 0.2 µM)
1 | EMC-BAC-2 | 0.268 | 0.323 | 0.299 | 0.274 | 0.275 | 1.19 | 1.13 | 1.11 | 0.867 | 0.642 | 0.872 | 0.806 | 0.798 | 0.591 | 0.475 | 0.563 | 0.486 | 0.461 | 0.324 | 0.29
2 | NCI-H1993 | 0.611 | 0.529 | 0.58 | 0.539 | 0.529 | 0.827 | 0.846 | 0.625 | 0.537 | 0.626 | 0.674 | 0.686 | 0.734 | 0.645 | 0.73 | 0.605 | 0.524 | 0.439 | 0.424 | 0.354
3 | NCI-H520 | 0.441 | 0.389 | 0.44 | 0.469 | 0.463 | 1.01 | 0.871 | 0.633 | 0.261 | 0.184 | 1.02 | 0.731 | 0.53 | 0.191 | 0.186 | 0.206 | 0.178 | 0.163 | 0.153 | 0.117
4 | NCI-H647 | 0.46 | 0.425 | 0.277 | 0.372 | 0.363 | 1.1 | 0.964 | 0.685 | 0.295 | 0.348 | 1.15 | 0.898 | 0.736 | 0.192 | 0.146 | 0.398 | 0.294 | 0.196 | 0.0842 | 0.0654
